Assays:
cells = settings: Homo sapiens, CCRF-CEM
Description: Antagonist activity at muscarinic acetylcholine receptor in human CCRF-CEM cells assessed as inhibition of acetylcholine-induced calcium release preincubated for 25 mins followed by acetylcholine addition and monitered for 90 sec

[1] = Metabolic stability in rat liver microsomes assessed as parent compound remaining incubated for 10 mins in presence of NADPH; format: ADME, Microsome; settings: read-out: Stabilty
Cytochrome P450 2D6 = Cytochrome P450 2D6 (Homo sapiens, UniProt P10635); experiment: Inhibition of human recombinant CYP2D6 expressed in insect cells using AMMC as substrate preincubated for 30 mins followed by NADPH regenerating system addition and measured after 45 mins by fluorescence based assay; format: ADME
Chain of Cytochrome P450 2D6 (P10635 whole entry): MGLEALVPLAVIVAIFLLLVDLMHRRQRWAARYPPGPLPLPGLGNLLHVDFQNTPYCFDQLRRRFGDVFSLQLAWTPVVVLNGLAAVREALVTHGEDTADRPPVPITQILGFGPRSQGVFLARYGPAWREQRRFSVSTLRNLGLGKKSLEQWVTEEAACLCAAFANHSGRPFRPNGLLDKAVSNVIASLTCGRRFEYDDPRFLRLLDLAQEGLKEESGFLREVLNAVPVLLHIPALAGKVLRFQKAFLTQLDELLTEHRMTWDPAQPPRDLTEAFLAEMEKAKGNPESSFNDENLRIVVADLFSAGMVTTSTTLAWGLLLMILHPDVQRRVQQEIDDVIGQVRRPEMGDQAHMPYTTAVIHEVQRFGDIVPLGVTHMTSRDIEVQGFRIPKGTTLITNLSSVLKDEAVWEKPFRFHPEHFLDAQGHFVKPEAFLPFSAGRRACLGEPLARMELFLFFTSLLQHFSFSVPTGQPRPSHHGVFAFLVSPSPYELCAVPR

[2] = Permeability of the compound at pH 7.4 incubated for 4 hrs by PAMPA; format: ADME; settings: read-out: permeability
Cytochrome P450 3A4 = Cytochrome P450 3A4 (Homo sapiens, UniProt P08684); experiment: Inhibition of CYP3A4 (unknown origin); format: ADME
Chain of Cytochrome P450 3A4 (P08684 whole entry): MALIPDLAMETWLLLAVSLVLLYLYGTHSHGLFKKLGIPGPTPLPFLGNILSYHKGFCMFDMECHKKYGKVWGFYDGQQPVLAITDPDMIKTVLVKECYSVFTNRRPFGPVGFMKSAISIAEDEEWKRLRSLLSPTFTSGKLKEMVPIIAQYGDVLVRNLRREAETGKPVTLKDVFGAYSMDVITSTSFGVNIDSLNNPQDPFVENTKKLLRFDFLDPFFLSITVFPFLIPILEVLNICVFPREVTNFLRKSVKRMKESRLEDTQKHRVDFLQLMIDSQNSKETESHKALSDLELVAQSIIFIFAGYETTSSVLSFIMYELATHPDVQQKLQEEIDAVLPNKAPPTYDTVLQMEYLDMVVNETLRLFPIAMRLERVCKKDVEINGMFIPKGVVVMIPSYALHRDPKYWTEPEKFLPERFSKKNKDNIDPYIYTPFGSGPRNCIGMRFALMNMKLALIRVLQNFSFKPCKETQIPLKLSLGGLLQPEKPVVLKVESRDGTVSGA

[3] = target: C-X-C chemokine receptor type 4 (Homo sapiens, UniProt P61073); experiment: Antagonist activity at CXCR4 receptor in human CCRF-CEM cells assessed as inhibition of SDF-1alpha-induced calcium release preincubated for 25 mins followed by SDF-1alpha addition and monitered for 90 sec; format: functional, cell-based
Chain of C-X-C chemokine receptor type 4 (P61073 whole entry): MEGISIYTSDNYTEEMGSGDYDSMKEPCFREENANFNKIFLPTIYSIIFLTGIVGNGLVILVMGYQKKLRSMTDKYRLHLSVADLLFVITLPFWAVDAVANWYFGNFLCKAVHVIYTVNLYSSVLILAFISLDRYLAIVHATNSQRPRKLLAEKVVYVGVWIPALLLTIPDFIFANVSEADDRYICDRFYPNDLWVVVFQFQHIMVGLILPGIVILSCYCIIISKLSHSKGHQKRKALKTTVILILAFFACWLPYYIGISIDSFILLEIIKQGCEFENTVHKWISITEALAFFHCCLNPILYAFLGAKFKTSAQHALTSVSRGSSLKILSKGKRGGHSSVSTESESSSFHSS

[4] = Metabolic stability in mouse liver microsomes assessed as parent compound remaining incubated for 10 mins in presence of NADPH; format: ADME, Microsome; settings: read-out: Stabilty
[5] = Metabolic stability in human liver microsomes assessed as parent compound remaining incubated for 10 mins in presence of NADPH; format: ADME, Microsome; settings: read-out: Stabilty
[6] = Oral bioavailability in CD-1 mouse at 30 mg/kg measured upto 8 hrs by UPLC-MS/MS analysis; format: ADME, organism-based; settings: in vivo
[7] = Volume of distribution in CD-1 mouse at 30 mg/kg, po or at 3 mg/kg, iv by UPLC-MS/MS analysis; format: ADME, organism-based; settings: in vivo
[8] = Half life in CD-1 mouse at 30 mg/kg, po or at 3 mg/kg, iv by UPLC-MS/MS analysis; settings: in vivo
[9] = AUC (0 to 8 hrs) in CD-1 mouse at 30 mg/kg, po or at 3 mg/kg, iv measured up to 8 hrs by UPLC-MS/MS analysis; format: ADME, organism-based; set-up: dose 30 mg/kg, time <=8; settings: in vivo
Cytochrome P450 2C9 = Cytochrome P450 2C9 (Homo sapiens, UniProt P11712); experiment: Inhibition of CYP2C9 (unknown origin); format: ADME
Chain of Cytochrome P450 2C9 (P11712 whole entry): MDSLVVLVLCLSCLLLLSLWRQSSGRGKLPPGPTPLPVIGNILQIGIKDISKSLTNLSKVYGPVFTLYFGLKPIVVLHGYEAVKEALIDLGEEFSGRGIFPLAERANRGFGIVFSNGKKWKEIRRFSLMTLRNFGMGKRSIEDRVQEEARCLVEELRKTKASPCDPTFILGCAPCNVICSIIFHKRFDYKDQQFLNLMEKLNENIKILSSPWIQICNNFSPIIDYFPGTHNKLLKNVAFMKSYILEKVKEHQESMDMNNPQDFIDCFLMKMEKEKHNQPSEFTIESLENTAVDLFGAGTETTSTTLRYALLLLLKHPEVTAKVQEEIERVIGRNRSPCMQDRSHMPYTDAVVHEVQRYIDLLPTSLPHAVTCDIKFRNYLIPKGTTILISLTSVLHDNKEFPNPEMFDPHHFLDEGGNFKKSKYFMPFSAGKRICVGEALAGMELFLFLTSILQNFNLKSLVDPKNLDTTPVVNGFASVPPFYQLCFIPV

In the case of `CN(C)C1CCN(c2cccc3c2C[C@H](CN(C)[C@H]2CCCc4cccnc42)NC3)C1` (single isomer, unassigned; 37), the IC50 (cells) is reported as 12.3 µM, the remaining at 10 min [1] is reported as 4.55% and the IC50 (Cytochrome P450 2D6) is reported as 15.4 µM. For the same molecule, the Papp at 4 h [2] was 1.6 ×10⁻⁶ cm/s, the IC50 (Cytochrome P450 3A4) was over 20 µM and the IC50 [3] was 10.9 nM. For the same molecule, the remaining at 10 min [4] was 18.5% and the remaining at 10 min [5] was 67.5%.
`CN(C[C@H]1Cc2c(cccc2N2C[C@H]3CNC[C@H]3C2)CN1)[C@H]1CCCc2cccnc21` gave an IC50 (cells) of 6.39 µM, a remaining at 10 min [1] of 38.1% and an IC50 (Cytochrome P450 2D6) of 7.81 µM. The IC50 (Cytochrome P450 3A4) was over 20 µM, the IC50 [3] was 10.3 nM and the remaining at 10 min [4] was 54.7%. It also gave a remaining at 10 min [5] of 86.7%.
`CN(C[C@H]1Cc2c(cccc2N2C[C@H]3CCN(C)[C@H]3C2)CN1)[C@H]1CCCc2cccnc21` showed an IC50 (cells) of 2.9 µM, a remaining at 10 min [1] of 11.2% and an IC50 (Cytochrome P450 2D6) of 17.3 µM. The Papp at 4 h [2] was 1.9 ×10⁻⁶ cm/s, the IC50 (Cytochrome P450 3A4) was over 20 µM and the IC50 [3] was 18.7 nM. For the same molecule, the remaining at 10 min [5] was 97.6%.
In the case of `CN(C)C1CCN(c2cccc3c2C[C@H](CN(C)[C@H]2CCCc4cccnc42)NC3)C1` (single isomer, unassigned; 36), the IC50 (cells) is reported as over 5.56 µM, the remaining at 10 min [1] is reported as 3.88% and the IC50 (Cytochrome P450 2D6) is reported as 3.67 µM. The Papp at 4 h [2] was 1.4 ×10⁻⁶ cm/s, the IC50 (Cytochrome P450 3A4) was over 20 µM and the IC50 [3] was 10.4 nM. It also gave a remaining at 10 min [4] of 28.2%.
Work on `CN(C[C@H]1Cc2c(cccc2NC2CCNCC2)CN1)[C@H]1CCCc2cccnc21` yielded an IC50 (cells) of over 16.7 µM, a remaining at 10 min [1] of 9.79% and an IC50 (Cytochrome P450 2D6) of over 20 µM. The IC50 (Cytochrome P450 3A4) was over 20 µM, the IC50 [3] was 18.1 nM and the remaining at 10 min [4] was 10.9%. The remaining at 10 min [5] was 75%.
`CN(C[C@H]1Cc2c(cccc2N2CCC(N)CC2)CN1)[C@H]1CCCc2cccnc21` showed an IC50 (cells) of over 33.3 µM, a remaining at 10 min [1] of 38.4% and an IC50 (Cytochrome P450 2D6) of 3.96 µM. It also gave an IC50 (Cytochrome P450 3A4) of over 20 µM, an IC50 [3] of 33.4 nM and a remaining at 10 min [4] of 70.3%. The remaining at 10 min [5] was 80.8%.
Molecule `CN(C[C@H]1Cc2c(cccc2N[C@H]2CC[C@H](N)CC2)CN1)[C@H]1CCCc2cccnc21` has an IC50 (cells) of 0.826 µM, a remaining at 10 min [1] of 75% and an IC50 (Cytochrome P450 2D6) of over 20 µM. It also gave an IC50 (Cytochrome P450 3A4) of over 20 µM, a remaining at 10 min [4] of 100% and a remaining at 10 min [5] of 100%.
For `NCCCCN(Cc1nc2ccccc2[nH]1)[C@H]1CCCc2cccnc21` [MAVORIXAFOR], the bioavailability [6] was 2.4%, the Vd [7] was 32.2 L/kg and the half-life [8] was 186 min. It also gave an AUC(0-t) [9] of 101 ng·h/mL.
Work on `CN1C[C@@H]2CN(c3cccc4c3C[C@H](CN(C)[C@H]3CCCc5cccnc53)NC4)C[C@@H]2C1` yielded an IC50 (cells) of over 33.3 µM, a remaining at 10 min [1] of 35.3% and an IC50 (Cytochrome P450 2D6) of over 20 µM. It also gave a Papp at 4 h [2] of 0.5 ×10⁻⁶ cm/s, an IC50 (Cytochrome P450 3A4) of over 20 µM and an IC50 [3] of 9.56 nM. For the same molecule, the remaining at 10 min [4] was 32.9% and the remaining at 10 min [5] was 100%.
Work on `CN1CC[C@H]2CN(c3cccc4c3C[C@H](CN(C)[C@H]3CCCc5cccnc53)NC4)C[C@H]21` yielded an IC50 (cells) of 11.9 µM, a remaining at 10 min [1] of 1.78% and an IC50 (Cytochrome P450 2D6) of 18.6 µM. The Papp at 4 h [2] was 0.9 ×10⁻⁶ cm/s, the IC50 (Cytochrome P450 3A4) was over 20 µM and the IC50 [3] was 11.4 nM. For the same molecule, the remaining at 10 min [4] was 24% and the remaining at 10 min [5] was 87.3%.
In the case of `CN(C)C1CCN(c2cccc3c2C[C@H](CN(C)[C@H]2CCCc4cccnc42)NC3)CC1`, the IC50 (cells) is reported as over 16.7 µM, the remaining at 10 min [1] is reported as 52.4% and the IC50 (Cytochrome P450 2D6) is reported as over 20 µM. The IC50 (Cytochrome P450 2C9) was 6.67 µM, the Papp at 4 h [2] was 4.4 ×10⁻⁶ cm/s and the IC50 (Cytochrome P450 3A4) was over 20 µM. The IC50 [3] was 35.9 nM, the remaining at 10 min [4] was 70.2% and the remaining at 10 min [5] was 78.4%.
For `CN1CCC(N(C)c2cccc3c2C[C@H](CN(C)[C@H]2CCCc4cccnc42)NC3)CC1`, the IC50 (cells) was over 16.7 µM, the remaining at 10 min [1] was 6.52% and the IC50 (Cytochrome P450 2D6) was over 20 µM. For the same molecule, the Papp at 4 h [2] was 1 ×10⁻⁶ cm/s, the IC50 (Cytochrome P450 3A4) was over 20 µM and the IC50 [3] was 13.4 nM. It also gave a remaining at 10 min [5] of 88.8%.
Work on `CN(C[C@@H]1Cc2c(cccc2NC2CCNCC2)CN1)[C@H]1CCCc2cccnc21` yielded an IC50 (cells) of over 16.7 µM, a remaining at 10 min [1] of 26.2% and an IC50 (Cytochrome P450 2D6) of over 20 µM. The IC50 (Cytochrome P450 3A4) was over 20 µM, the IC50 [3] was 1670 nM and the remaining at 10 min [4] was 12.4%. For the same molecule, the remaining at 10 min [5] was 79.9%.

From ChEMBL document CHEMBL4842390, “Amino-Heterocycle Tetrahydroisoquinoline CXCR4 Antagonists with Improved ADME Profiles via Late-Stage Buchwald Couplings” (ACS Med Chem Lett, 2021)
